Here are results for one compound from US7037656B2, “Methods and compositions for identifying ligands for nuclear receptors” (priority 2000, dated 2006).

Assay in all cases: Yeast 6x EcRE-lacZ β-galactosidase transactivation assay
Common to all, as to type: cell-based

One experiment concerns the target T1, Cf EcR (Choristoneura fumiferana, UniProt O77240).
T1 construct: human ubiquitin (76 aa) (N, cleaved yes); expressed in transfected cells; host or cells: yeast (Saccharomyces cerevisiae), plasmid YEpCfEcR, CUP1 promoter
As to conditions: RH 5992 10 μM, 4 hours, DMSO control 0.201. How it is done:
(§1) Briefly, yeast cells are cultured in 5 mL of YPD liquid medium overnight at 30° C. The cell culture was diluted 1:20 in YPD media and further grown until cell density reached an O.D of 0.6. at OD600. The cells were pelleted by centrifugation and washed with 10 mL of TE+0.1M lithium acetate. Cells are then resuspended in 10 mL TE+0.1M lithium acetate and incubated at 30° C. for 1 hour. Cells are collected and resuspended in 0.5 mL of TE+ 0.1M lithium acetate. Aliquots of cells (50 μL), were incubated for 15 minutes at 30° C. with 1–2 μg plasmid DNA in the presence of 5 μg of denatured salmon sperm DNA as DNA carrier. In the case of co-transformation, the indicated plasmids were added simultaneously. 50% polyethyleneglycol of molecular weight 4000, diluted in TE, was added to a final concentration of 35%. DMSO was added to the transformation solution simultaneously to a final concentration 3%. The samples were mixed well by vortexing and incubated for an additional 30 minutes at 30° C. The cell mixture is then heated for 15 minutes at 42° C. Cells were then collected and plated onto appropriate yeast selective media. Transformants of 4 plasmids are selected on the complete media without tryptophan, uracil, leucine and histidine.
(§2) The yeast cells grown overnight in selective liquid media at 30° C. were diluted in prewarmed liquid selective media to 0.1 at OD600 (ODculture). 100 μl of the cell culture was spiked to each well of a.96-well microtiter plate. Ligand (2 μl diluted in DMSO) was added to each well giving a final concentration of DMSO of 2%. As a control, 2 μl of DMSO were also added to additional test wells. The final concentration of the tested compounds in the media is 10 μM. The cells were incubated in the presence of ligand in a shaker at 30° C. After 4 hours of incubation, 100 μl of 2× “Z” Sarcosine-ONPG buffer (120 mM Na2HPO4, 80 mM NaH2PO4, 20 mM KCl, 2 mM MgSO4, 100 mM beta-mercaptoethanol (Sigma), pH 7.0, 0.4% lauroyl sarcosine (Sigma), 4 mg/mL ONPG (Diagnostic Chemicals limited) was added to each well and the plate was further incubated at 37° C. The 2× “Z” Sarcosine-ONPG buffer is freshly prepared or stored at −20° C. prior to use. After incubation at 37° C. for 1 hour. The reaction was stopped by adding 100 μL of quenching solution 0.5 M Na2CO3 and OD405 (ODreaction) and beta-galactosidase activity was measured in a micro plate reader (Biotek) at a wave length of 405–450 nanometers. The effect of copper on enhancement of the transactivation response mediated by the ligands tested was studied by adding CuSO4 to the media to a final concentration of 10 μM.
(§3) Using the transformation method described above, yeast were co-transformed with a reporter gene as shown in FIG. 2 and the expression vector encoding the full-length Choristoneura fumiferana ecdysone receptor, Cf EcR (FIG. 5A) in the presence or absence of the Cf EcR heterodimer partner, Cf USP (FIG. 6A). Transformed cells were incubated with DMSO alone as a control, or with a proprietary ecdysone receptor ligand (Rohm & Haas RH5992) at final concentration 10 μM for 4 hours. The samples were then assayed for β-galactosidase activity as described above. […] However, as with all systems tested, fruit fly, mosquito and spruce bud worm, co-expression of CfEcR with CfUSP did give rise to constitutive transactivation of reporter gene. […] However, deletion of the A/B domain of the CfUSP abolished this constitutive transactivation of the reporter gene. Thus, in the spruce bud worm system, constitutive transcription is not observed when CfEcR/Cf ΔAB USP or Cf ΔAB EcR/Cf ΔAB USP are co-expressed. […] Ligand dependent transactivation was observed only in the presence of the co-activator GRIP1. We also observed stronger ligand dependent activity for the Cf ΔA/B EcR+Cf ΔA/B USP+GRIP1 combination than the CfEcR+CfΔA/B USP+GRIP1 combination.

Another experiment concerns the target T2, Cf EcR + Cf ΔA/B USP (Choristoneura fumiferana, UniProt O77240).
T2 construct: human ubiquitin (76 aa) (N, cleaved yes); expressed in transfected cells; host or cells: yeast (Saccharomyces cerevisiae)
As to conditions: RH 5992 10 μM, 4 hours, DMSO control 0.205. How it is done: as §1, §2, §3

In experiment [1] the target is T3, Cf EcR + Cf ΔA/B USP + GRIP1 (Choristoneura fumiferana, UniProt O77240).
T3 construct: human ubiquitin (76 aa) (N, cleaved yes); expressed in transfected cells; host or cells: yeast (Saccharomyces cerevisiae); GRIP1 from pRS423-ADH1GRIP812
The protocol: as §1, §2, §3

The target of another experiment is T4, Cf EcR + CfUSP (Choristoneura fumiferana, UniProt O77240).
T4 construct: human ubiquitin (76 aa) (N, cleaved yes); expressed in transfected cells; host or cells: yeast (Saccharomyces cerevisiae)
As to conditions: RH 5992 10 μM, 4 hours, DMSO control 2.734. The protocol: as §1, §2, §3

Another experiment deals with T5, Cf USP (Choristoneura fumiferana, UniProt O76202).
T5 construct: human ubiquitin (76 aa) (N, cleaved yes); expressed in transfected cells; host or cells: yeast (Saccharomyces cerevisiae), plasmid pRS425CfUSP, CUP1 promoter
As to conditions: RH 5992 10 μM, 4 hours, DMSO control 0.233. The protocol:
as §1, §2, §3

The target in a further experiment is T6, Cf ΔA/B EcR + Cf USP (Choristoneura fumiferana, UniProt O77240).
T6 construct: human ubiquitin (76 aa) (N, cleaved yes); expressed in transfected cells; host or cells: yeast (Saccharomyces cerevisiae)
As to conditions: RH 5992 10 μM, 4 hours, DMSO control 2.684. The protocol:
as §1, §2, §3

The target of experiment [2] is T7, Cf ΔA/B EcR + Cf ΔA/B USP (Choristoneura fumiferana, UniProt O77240).
T7 construct: human ubiquitin (76 aa) (N, cleaved yes); expressed in transfected cells; host or cells: yeast (Saccharomyces cerevisiae)
As to conditions: RH 5992 10 μM, 4 hours, DMSO control 0.209. The protocol: as §1, §2, §3

Molecules are shown by their SMILES.

T3 sequence (O77240 1-513, stated change not applied): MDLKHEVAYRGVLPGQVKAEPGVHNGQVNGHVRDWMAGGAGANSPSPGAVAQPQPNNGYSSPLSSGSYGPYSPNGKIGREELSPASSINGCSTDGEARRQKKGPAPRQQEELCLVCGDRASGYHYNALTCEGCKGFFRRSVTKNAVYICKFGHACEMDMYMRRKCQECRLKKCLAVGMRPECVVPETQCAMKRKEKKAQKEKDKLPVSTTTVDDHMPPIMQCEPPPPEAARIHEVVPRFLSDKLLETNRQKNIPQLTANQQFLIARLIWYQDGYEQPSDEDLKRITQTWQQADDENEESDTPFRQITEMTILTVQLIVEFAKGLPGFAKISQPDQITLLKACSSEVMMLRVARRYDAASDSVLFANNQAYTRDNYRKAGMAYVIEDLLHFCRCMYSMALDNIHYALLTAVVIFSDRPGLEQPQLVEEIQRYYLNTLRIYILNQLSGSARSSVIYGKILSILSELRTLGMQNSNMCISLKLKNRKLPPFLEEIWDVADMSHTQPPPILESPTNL
T3 sequence (O76202 with tags, fused parts or gaps partner): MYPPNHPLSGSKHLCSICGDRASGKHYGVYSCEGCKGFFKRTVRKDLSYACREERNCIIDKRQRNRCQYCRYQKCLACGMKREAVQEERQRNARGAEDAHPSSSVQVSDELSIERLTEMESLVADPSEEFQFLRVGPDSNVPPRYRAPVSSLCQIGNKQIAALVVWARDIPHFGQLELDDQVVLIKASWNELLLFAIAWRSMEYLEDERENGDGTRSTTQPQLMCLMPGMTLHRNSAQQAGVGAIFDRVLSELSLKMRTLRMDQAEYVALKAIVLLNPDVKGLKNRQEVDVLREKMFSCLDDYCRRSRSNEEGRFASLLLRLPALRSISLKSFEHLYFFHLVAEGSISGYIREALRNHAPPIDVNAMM
T2 sequence (O77240 1-513, stated change not applied): as the sequence (O77240 1-513, stated change not applied) above
T2 sequence (O76202 with tags, fused parts or gaps partner): as the sequence (O76202 with tags, fused parts or gaps partner) above
T4 sequence (O77240 1-513): as the sequence (O77240 1-513, stated change not applied) above
T4 sequence (O76202 whole entry partner): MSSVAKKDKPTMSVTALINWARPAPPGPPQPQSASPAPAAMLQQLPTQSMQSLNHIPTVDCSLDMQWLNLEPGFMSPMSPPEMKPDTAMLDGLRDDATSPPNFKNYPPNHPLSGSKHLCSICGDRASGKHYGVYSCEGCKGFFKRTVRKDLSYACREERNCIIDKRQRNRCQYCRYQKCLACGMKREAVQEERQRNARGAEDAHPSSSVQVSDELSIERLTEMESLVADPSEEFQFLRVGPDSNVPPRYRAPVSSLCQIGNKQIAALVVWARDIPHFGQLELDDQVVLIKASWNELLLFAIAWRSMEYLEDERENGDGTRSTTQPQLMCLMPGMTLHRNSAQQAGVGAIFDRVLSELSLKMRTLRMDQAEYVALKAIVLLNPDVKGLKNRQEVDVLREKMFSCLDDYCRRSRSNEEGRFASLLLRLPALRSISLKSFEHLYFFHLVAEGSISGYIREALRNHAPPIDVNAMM
T1 sequence (O77240 1-513): as the sequence (O77240 1-513, stated change not applied) above
T5 sequence (O76202 whole entry): as the sequence (O76202 whole entry partner) above
T6 sequence (O77240 entry or part of it, stated change not applied): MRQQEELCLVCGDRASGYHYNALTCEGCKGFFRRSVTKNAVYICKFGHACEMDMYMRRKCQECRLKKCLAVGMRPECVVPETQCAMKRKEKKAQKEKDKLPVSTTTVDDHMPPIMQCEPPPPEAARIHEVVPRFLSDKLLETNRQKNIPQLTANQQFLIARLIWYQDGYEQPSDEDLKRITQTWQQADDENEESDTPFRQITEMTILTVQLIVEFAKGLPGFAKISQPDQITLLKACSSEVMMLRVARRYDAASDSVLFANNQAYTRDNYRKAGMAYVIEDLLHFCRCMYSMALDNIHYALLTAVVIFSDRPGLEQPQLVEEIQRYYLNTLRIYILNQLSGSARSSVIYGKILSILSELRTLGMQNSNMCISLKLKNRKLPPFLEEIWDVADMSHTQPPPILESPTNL
T6 sequence (O76202 whole entry partner): as the sequence (O76202 whole entry partner) above
T7 sequence (O77240 entry or part of it, stated change not applied): as the sequence (O77240 entry or part of it, stated change not applied) above
T7 sequence (O76202 with tags, fused parts or gaps partner): as the sequence (O76202 with tags, fused parts or gaps partner) above

For the compound `CCc1ccc(C(=O)NN(C(=O)c2cc(C)cc(C)c2)C(C)(C)C)cc1` [RH 5992, tebufenozide], the β-galactosidase activity is reported as 0.175 on Cf EcR; 0.241 on Cf EcR + Cf ΔA/B USP; 0.492 in experiment [1] (RH 5992 10 μM, 4 hours, yeast, Cf EcR + Cf ΔA/B USP + GRIP1, DMSO control 0.223); 3.000 on Cf EcR + CfUSP; 0.230 at Cf USP; 3.000 on Cf ΔA/B EcR + Cf USP. For the same compound, the β-galactosidase activity in experiment [2] was found to be 0.234. In experiment [1] (complex CfEcR:CfΔA/B USP:GRIP1), the “response of the complex to the ligand (in words)” value is on record as “responsive, but not very sensitive”.
